The record followed here is US20230374025A1, “FGFR INHIBITOR COMPOUND AND USE THEREOF” (SHENZHEN KANGSU PHARMACEUTICAL TECHNOLOGY CO., LTD., priority 2021, published 2023).

Common to all, as to assay type: biochemical
For experiment [1], the target named is T1, FGFR1 V561M (Homo sapiens, UniProt P11362, V561M).
T1 construct: purchased Signalchem F04-13G
Description: Assay I: inhibitory activity against FGFR mutants (HTRF KinEASE-TK). To be noted: ATP 5 μM, substrate TK 1 μM. The procedure:
(§1) Assay I: Determination of Inhibitory Activity Against FGFR Mutants
(§2) 1. Reagents and Equipment
(§3) 2.1 Preparation of 1× Kinase Reaction Buffer:
(§4) 1× Kinase reaction buffer was formulated with 1× volume of 5× kinase reaction buffer and 4× volume of water; 5 mM MgCl2; and 1 mM DTT.
(§5) 2.3 Screening of Compounds:
(§6) 1. Diluting a compound 4-fold in a dilution plate with DMSO, with a starting compound concentration of 2 mM.
(§7) 2. Diluting the compound 40-fold into 1× kinase reaction buffer and shaking it on a shaker for 20 minutes.
(§8) 5. Adding 1 μl of the compound diluted in buffer to each well, sealing the plate with a sealing membrane and centrifuging the plate at 1000 g for 30 seconds and leaving it at room temperature for 10 minutes.
(§9) 6. Formulating 2.5×TK-substrate-biotin and ATP mixture with 1× enzyme reaction buffer and adding 2 μl of K-substrate-biotin/ATP mixture to the reaction plate.
(§10) 7. Sealing the plate with a sealing membrane and centrifuging the plate at 1000 g for 30 seconds and allowing it to react at room temperature for 50 minutes.
(§11) 8. Formulating 4× Sa-XL 665 (250 nM) with HTRF assay buffer.
(§12) 9. Adding 5 μl Sa-XL 665 and 5 μl TK-Antibody-Cryptate to each well, centrifuging it at 1000 g for 30 seconds, and allowing it to react for 1 hour at room temperature.
(§13) 10. Reading fluorescence signals at 615 nm (Cryptate) and 665 nm (XL665) with Biotek.
(§14) 3.1 Calculation of the ratio for each well: the ratio was calculated as 665/615 nm.
(§15) 3.3 Calculation of IC50 and plotting of inhibition curves for the compounds.
(§16) The IC50 (half inhibition concentration) of a compound was obtained using the following non-linear fitting equation, wherein data analysis was performed using Graphpad 6.0 software.
(§17) Y=Bottom+(Top−Bottom)/(1+10^((Log IC50−X)*Hill Slope)) • X: log value of compound concentration; and Y: inhibition rate (% inh)
(§18) 3.4 Validation of Results
(§19) Data were exported from Envision and analyzed manually. The ratios were converted to inhibition rates and IC50 was calculated by Prism GraphPad 6.0 from the inhibition rates. IC50 was calculated again by the ratios to verify accuracy of the results.
(TR-FRET usually uses a lanthanide donor and a delayed reading to cut background.)

Experiment [2] deals with T2, FGFR2 V564F (Homo sapiens, UniProt P21802, V564F).
T2 construct: purchased Signalchem F05-12FG
T2 sequence (P21802 22-821 V564F): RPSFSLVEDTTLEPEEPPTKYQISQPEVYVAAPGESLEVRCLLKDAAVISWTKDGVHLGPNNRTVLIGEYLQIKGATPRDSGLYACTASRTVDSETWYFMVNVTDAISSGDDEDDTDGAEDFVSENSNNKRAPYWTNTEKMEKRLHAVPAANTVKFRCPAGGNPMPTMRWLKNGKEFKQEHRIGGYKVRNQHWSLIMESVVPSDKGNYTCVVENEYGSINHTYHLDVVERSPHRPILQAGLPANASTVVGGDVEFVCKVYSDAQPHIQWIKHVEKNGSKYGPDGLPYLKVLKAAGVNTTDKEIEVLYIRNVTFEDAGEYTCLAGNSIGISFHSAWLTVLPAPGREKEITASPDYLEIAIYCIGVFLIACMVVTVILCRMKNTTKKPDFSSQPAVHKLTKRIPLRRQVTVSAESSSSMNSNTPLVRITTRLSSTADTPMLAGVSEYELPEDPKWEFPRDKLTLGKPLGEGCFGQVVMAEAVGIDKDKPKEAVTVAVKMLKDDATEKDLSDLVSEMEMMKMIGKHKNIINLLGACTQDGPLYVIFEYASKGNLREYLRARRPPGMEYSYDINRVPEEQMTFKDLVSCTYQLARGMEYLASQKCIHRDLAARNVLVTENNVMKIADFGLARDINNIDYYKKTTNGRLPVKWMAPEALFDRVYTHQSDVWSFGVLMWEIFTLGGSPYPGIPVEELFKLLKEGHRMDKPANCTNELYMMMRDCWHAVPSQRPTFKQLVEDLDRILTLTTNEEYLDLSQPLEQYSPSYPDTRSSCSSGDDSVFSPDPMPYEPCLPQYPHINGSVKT
The experiment is described as above. To be noted: ATP 10 μM, substrate TK 1 μM. The procedure: as §1, §2, §3, §4, §5, §6, §7, §8, §9, §10, §11, §12, §13, §14, §15, §16, §17, §18, §19

Experiment [3] concerns the target T3, FGFR3 V555M (Homo sapiens, UniProt P22607, V555M).
T3 construct: purchased Signalchem F06-12GG
The description is as above. To be noted: ATP 20 μM, substrate TK 1 μM. The procedure:
as §1, §2, §3, §4, §5, §6, §7, §8, §9, §10, §11, §12, §13, §14, §15, §16, §17, §18, §19

For experiment [4], the target named is T4, VEGFR2 (Homo sapiens, UniProt P35968).
T4 construct: purchased Carna 08-191
T4 sequence (P35968 20-1356): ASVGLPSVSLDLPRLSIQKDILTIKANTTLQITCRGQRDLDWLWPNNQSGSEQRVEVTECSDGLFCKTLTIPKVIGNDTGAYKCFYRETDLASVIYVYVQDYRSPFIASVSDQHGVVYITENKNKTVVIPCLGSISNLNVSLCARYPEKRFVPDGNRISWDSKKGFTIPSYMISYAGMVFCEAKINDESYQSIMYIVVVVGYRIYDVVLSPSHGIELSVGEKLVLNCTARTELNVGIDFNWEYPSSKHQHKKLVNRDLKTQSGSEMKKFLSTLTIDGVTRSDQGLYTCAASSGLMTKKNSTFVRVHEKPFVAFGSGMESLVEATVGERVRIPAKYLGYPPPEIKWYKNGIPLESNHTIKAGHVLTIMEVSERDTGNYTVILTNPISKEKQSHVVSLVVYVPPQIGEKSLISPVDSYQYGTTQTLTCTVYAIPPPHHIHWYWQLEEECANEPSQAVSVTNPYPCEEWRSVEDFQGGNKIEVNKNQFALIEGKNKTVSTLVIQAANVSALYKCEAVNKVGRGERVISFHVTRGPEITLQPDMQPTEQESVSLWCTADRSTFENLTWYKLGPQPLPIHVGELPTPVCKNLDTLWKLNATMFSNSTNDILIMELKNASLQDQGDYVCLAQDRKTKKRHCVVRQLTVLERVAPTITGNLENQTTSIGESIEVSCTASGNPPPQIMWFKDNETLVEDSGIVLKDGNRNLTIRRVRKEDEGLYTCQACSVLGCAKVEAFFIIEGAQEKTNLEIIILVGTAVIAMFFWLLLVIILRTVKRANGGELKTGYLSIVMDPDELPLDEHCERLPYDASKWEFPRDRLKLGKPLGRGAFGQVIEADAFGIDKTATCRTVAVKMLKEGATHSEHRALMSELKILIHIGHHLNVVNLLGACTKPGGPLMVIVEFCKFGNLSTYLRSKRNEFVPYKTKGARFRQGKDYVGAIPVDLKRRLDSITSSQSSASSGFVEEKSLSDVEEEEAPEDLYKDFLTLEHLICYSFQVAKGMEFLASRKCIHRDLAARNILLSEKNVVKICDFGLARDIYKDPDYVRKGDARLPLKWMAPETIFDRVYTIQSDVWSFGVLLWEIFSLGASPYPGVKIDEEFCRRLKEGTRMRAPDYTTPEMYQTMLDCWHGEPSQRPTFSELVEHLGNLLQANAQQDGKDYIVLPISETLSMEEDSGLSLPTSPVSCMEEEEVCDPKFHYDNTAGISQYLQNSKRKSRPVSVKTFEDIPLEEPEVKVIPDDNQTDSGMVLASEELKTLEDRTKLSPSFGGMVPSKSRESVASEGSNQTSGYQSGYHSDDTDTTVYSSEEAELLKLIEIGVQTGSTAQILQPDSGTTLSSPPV
Description: Assay I: VEGFR2 kinase inhibition (HTRF KinEASE-TK). To be noted: ATP 5 μM, substrate TK 1 μM. As to the method: as §1, §2, §3, §4, §5, §6, §7
3. Formulating 2×FGFR1 V561M/FGFR2 V564F/FGFR3 K650E/VEGFR2 with 1× of enzyme reaction buffer.
4. Adding 2 μl FGFR1 V561M/FGFR2 V564F/FGFR3 K650E/VEGFR2 kinase (formulated in step 3) to each well of the reaction plate.
as §8, §9, §10, §11, §12, §13, §14, §15, §16, §17, §18, §19
Positive control IC50 was within 3 times of the average value

T1 sequence (P11362 22-822 V561M): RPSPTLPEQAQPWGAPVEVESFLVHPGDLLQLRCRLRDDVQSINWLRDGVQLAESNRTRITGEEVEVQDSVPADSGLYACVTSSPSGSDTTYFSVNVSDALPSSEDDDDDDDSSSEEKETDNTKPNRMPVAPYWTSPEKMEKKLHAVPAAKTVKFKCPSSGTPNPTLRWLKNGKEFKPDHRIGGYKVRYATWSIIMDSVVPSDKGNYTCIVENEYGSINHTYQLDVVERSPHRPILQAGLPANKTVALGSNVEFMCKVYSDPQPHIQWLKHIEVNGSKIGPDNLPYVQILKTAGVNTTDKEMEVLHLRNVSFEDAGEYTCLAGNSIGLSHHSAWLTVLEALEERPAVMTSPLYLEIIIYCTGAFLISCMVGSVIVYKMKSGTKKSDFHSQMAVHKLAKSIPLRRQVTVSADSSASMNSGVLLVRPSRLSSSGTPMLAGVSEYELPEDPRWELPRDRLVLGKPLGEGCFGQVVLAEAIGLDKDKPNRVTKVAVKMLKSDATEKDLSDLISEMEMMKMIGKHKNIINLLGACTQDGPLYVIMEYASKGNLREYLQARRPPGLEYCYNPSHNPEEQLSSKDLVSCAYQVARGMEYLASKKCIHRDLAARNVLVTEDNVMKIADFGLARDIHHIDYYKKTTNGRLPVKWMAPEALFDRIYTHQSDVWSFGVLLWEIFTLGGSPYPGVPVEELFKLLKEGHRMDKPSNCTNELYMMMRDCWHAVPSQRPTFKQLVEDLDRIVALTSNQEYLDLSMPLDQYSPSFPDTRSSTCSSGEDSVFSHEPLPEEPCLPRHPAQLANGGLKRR
T3 sequence (P22607 397-806 V555M limits assumed): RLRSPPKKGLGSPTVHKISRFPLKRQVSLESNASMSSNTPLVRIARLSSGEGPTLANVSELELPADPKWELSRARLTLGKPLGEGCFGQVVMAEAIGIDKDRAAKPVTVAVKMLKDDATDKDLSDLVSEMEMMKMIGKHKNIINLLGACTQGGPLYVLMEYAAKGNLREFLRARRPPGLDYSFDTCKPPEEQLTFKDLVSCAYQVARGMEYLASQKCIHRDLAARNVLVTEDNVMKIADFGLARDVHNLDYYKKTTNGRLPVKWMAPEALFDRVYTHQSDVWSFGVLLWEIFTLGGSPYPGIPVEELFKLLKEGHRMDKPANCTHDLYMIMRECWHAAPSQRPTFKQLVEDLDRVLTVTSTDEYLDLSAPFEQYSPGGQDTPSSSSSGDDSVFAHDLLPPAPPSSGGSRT

On to `C[C@@H](Oc1ccc2[nH]nc(-c3nc4c([nH]3)CN(C3CCCN(C)C3)C4)c2c1)c1c(Cl)cncc1Cl` (stereo partly drawn) [Compound 38, 5-((R)-1-(3,5-Dichloropyridin-4-yl)ethoxy)-3-(5-(1-methylpiperidin-3-yl)-1,4,5,6-tetrahydropyrrolo[3,4-d]imidazol-2-yl)-1H-indazole], for which the IC50 (commonly the midpoint of a concentration-inhibition curve) was 0.75 nM in experiment [1], 0.19 nM in experiment [2], 0.15 nM in experiment [3] and 15.7 nM in experiment [4].
The matching figures for `C[C@@H](Oc1ccc2[nH]nc(-c3nc4c([nH]3)CN(C(=O)CN3CCCC3)C4)c2c1)c1c(Cl)cncc1Cl` [Compound 40, (R)-1-(2-(5-(1-(3,5-dichloropyridin-4-yl)ethoxy)-1H-indazol-3-yl)-4,6-dihydropyrrolo[3,4-d]imidazol-5(1H)-yl)-2-(pyrrolidin-1-yl)ethan-1-one]: 0.39 nM, 0.32 nM, 0.26 nM and 4.7 nM.
Turning to `C[C@@H](Oc1ccc2[nH]nc(-c3nc4c([nH]3)CN(C(=O)CN3CC[C@@H](O)C3)C4)c2c1)c1c(Cl)cncc1Cl` [Compound 41, 1-(2-(5-((R)-1-(3,5-Dichloropyridin-4-yl)ethoxy)-1H-indazol-3-yl)-4,6-dihydropyrrolo[3,4-d]imidazol-5(1H)-yl)-2-((R)-3-hydroxypyrrolidin-1-yl)ethan-1-one], the IC50 in experiment [1] worked out at 0.26 nM; in experiment [2] it was 0.23 nM; in experiment [3], 0.1 nM; in experiment [4], 2.4 nM.
For `C[C@@H](Oc1ccc2[nH]nc(-c3nc4c([nH]3)CN(C(=O)CN3CC[C@H](O)C3)C4)c2c1)c1c(Cl)cncc1Cl` [Compound 42, 1-(2-(5-((R)-1-(3,5-Dichloropyridin-4-yl)ethoxy)-1H-indazol-3-yl)-4,6-dihydropyrrolo[3,4-d]imidazol-5(1H)-yl)-2-((S)-3-hydroxypyrrolidin-1-yl)ethan-1-one], the IC50 in experiment [1] is 1 nM; in experiment [2], 0.18 nM; in experiment [3], 0.33 nM; in experiment [4], 10.3 nM.
On the same counts, the results for `C[C@@H](Oc1ccc2[nH]nc(-c3nc4c([nH]3)CN(C(=O)CN(C)C)C4)c2c1)c1c(Cl)cncc1Cl` [Compound 43, (R)-1-(2-(5-(1-(3,5-dichloropyridin-4-yl)ethoxy)-1H-indazol-3-yl)-4,6-dihydropyrrolo[3,4-d]imidazol-5(1H)-yl)-2-(dimethylamino)ethan-1-one] are 0.26 nM, 0.13 nM, 0.35 nM and 3.3 nM.
The matching figures for `C[C@@H](Oc1ccc2[nH]nc(-c3nc4c([nH]3)CN(C(=O)[C@@H]3CCCN3)C4)c2c1)c1c(Cl)cncc1Cl` [Compound 44, 3-(5-(L-prolinyl)-1,4,5,6-tetrahydropyrrolo[3,4-d]imidazol-2-yl)-5-((R)-1-(3,5-dichloropyridin-4-yl)ethoxy)-1H-indazole]: 0.82 nM, 0.32 nM, 0.43 nM and 5.3 nM.
On the same counts, the results for `C[C@@H](Oc1ccc2[nH]nc(-c3nc4c([nH]3)CN(C(=O)[C@@H]3CCCN3C)C4)c2c1)c1c(Cl)cncc1Cl` [Compound 45, 5-((R)-1-(3,5-dichloropyridin-4-yl)ethoxy)-3-(5-(methyl-L-prolinyl)-1,4,5,6-tetrahydropyrrolo[3,4-d]imidazol-2-yl)-1H-indazole] are 0.81 nM, 0.36 nM, 0.18 nM and 7.6 nM.
Turning to `C[C@@H](Oc1ccc2[nH]nc(-c3nc4c([nH]3)CN(C(=O)[C@@H]3CCCCN3)C4)c2c1)c1c(Cl)cncc1Cl` [Compound 46, (2-(5-((R)-1-(3,5-dichloropyridin-4-yl)ethoxy)-1H-indazol-3-yl)-4,6-dihydropyrrolo[3,4-d]imidazol-5(1H)-yl)((S)-piperidin-2-yl)ketone], the 50% inhibitory concentration (IC50) was 0.65 nM in experiment [1], 0.29 nM in experiment [2], 0.33 nM in experiment [3] and 9.9 nM in experiment [4].
Regarding `C[C@@H](Oc1ccc2[nH]nc(-c3nc4c([nH]3)CN(C(=O)[C@@H]3CCCCN3C)C4)c2c1)c1c(Cl)cncc1Cl` [Compound 47, (2-(5-((R)-1-(3,5-dichloropyridin-4-yl)ethoxy)-1H-indazol-3-yl)-4,6-dihydropyrrolo[3,4-d]imidazol-5(1H)-yl)((S)-1-methylpiperidin-2-yl)ketone], the IC50 worked out at 0.29 nM in experiment [1], 0.21 nM in experiment [2], 0.14 nM in experiment [3] and 2.5 nM in experiment [4].
The matching figures for `C[C@@H](Oc1ccc2[nH]nc(-c3nc4c([nH]3)CN(C(=O)CN3CCCCC3)C4)c2c1)c1c(Cl)cncc1Cl` [Compound 50, (R)-1-(2-(5-(1-(3,5-dichloropyridin-4-yl)ethoxy)-1H-indazol-3-yl)-4,6-dihydropyrrolo[3,4-d]imidazol-5(1H)-yl)-2-(piperidin-1-yl)ethan-1-one]: 1.2 nM, 0.21 nM, 0.35 nM and 8.4 nM.
For `C[C@@H](Oc1ccc2[nH]nc(-c3nc4c([nH]3)CN(C(=O)CN3CCC3)C4)c2c1)c1c(Cl)cncc1Cl` [Compound 51, (R)-2-(Azetidin-1-yl)-1-(2-(5-(1-(3,5-dichloropyridin-4-yl)ethoxy)-1H-indazol-3-yl)-4,6-dihydropyrrolo[3,4-d]imidazol-5(1H)-yl)ethan-1-one], the half-maximal inhibitory concentration (IC50) in experiment [1] was 0.74 nM; in experiment [2], 0.21 nM; in experiment [3], 0.16 nM; in experiment [4], 14.2 nM.
The matching figures for `C[C@@H](Oc1ccc2[nH]nc(-c3nc4c([nH]3)CN(C(=O)CN3CC(O)C3)C4)c2c1)c1c(Cl)cncc1Cl` [Compound 52, (R)-1-(2-(5-(1-(3,5-Dichloropyridin-4-yl)ethoxy)-1H-indazol-3-yl)-4,6-dihydropyrrolo[3,4-d]imidazol-5(1H)-yl)-2-(3-hydroxyazetidin-1-yl)ethan-1-one]: 0.87 nM, 0.16 nM, 0.14 nM and 13.6 nM.
The matching figures for `C[C@@H](Oc1ccc2[nH]nc(-c3nc4c([nH]3)CN(C(=O)CN3CC(F)C3)C4)c2c1)c1c(Cl)cncc1Cl` [Compound 53, (R)-1-(2-(5-(1-(3,5-dichloropyridin-4-yl)ethoxy)-1H-indazol-3-yl)-4,6-dihydropyrrolo[3,4-d]imidazol-5(1H)-yl)-2-(3-fluoroazetidin-1-yl)ethan-1-one]: 6.4 nM, 0.82 nM, 1.9 nM and 45.5 nM.
The matching figures for `C[C@@H](Oc1ccc2[nH]nc(-c3nc4c([nH]3)CN(C(=O)OCCN(C)C)C4)c2c1)c1c(Cl)cncc1Cl` [Compound 54, 2-(dimethylamino)ethyl(R)-2-(5-(1-(3,5-dichloropyridin-4-yl)ethoxy)-1H-indazol-3-yl)-4,6-dihydropyrrolo[3,4-d]imidazole-5(1H)-carboxylate]: 0.55 nM, 0.15 nM, 0.11 nM and 3.3 nM.
For the compound `C[C@@H](Oc1ccc2[nH]nc(-c3nc4c([nH]3)CN(C(=O)OC3CCN(C)C3)C4)c2c1)c1c(Cl)cncc1Cl` (stereo partly drawn) [Compound 55, 1-Methylpyrrolidin-3-yl 2-(5-((R)-1-(3,5-dichloropyridin-4-yl)ethoxy)-1H-indazol-3-yl)-4,6-dihydropyrrolo[3,4-d]imidazole-5(1H)-carboxylate], the IC50 stood at 5.1 nM in experiment [1], 0.34 nM in experiment [2], 0.87 nM in experiment [3] and 13.4 nM in experiment [4].
